Experimental findings from patent US11072635B2, “Macrocyclic broad spectrum antibiotics” (priority 2015, dated 2021) are described below.

Common to all, as to format: cell-based
In assay [1] the test system is Escherichia coli MC4100 harboring the IMP4213 (E. coli IMP). The assay can be described thus: microbe, parasite or virus in culture. Particulars: 22 h, read-out: MIC (μg/mL) E. coli IMP. As for the experimental part: (§1) In vitro antimicrobial activity of each compound was determined by measuring minimal inhibitor concentrations (MICs) using the broth micro-dilution technique as approved by the Clinical and Laboratory Standards Institute (CLSI) (Methods for Dilution Antimicrobial Susceptibility Tests for Bacteria that Grow Aerobically; Approved Standard—Eighth Edition. CLSI document M07-A8. Wayne, Pa.: Clinical and Laboratory Standards; 2009). Antibacterial activity was measure against three strains of bacteria: a Methicillin Resistant Staphylococcus aureus strain USA 300, NRS384 (S. aureus); a strain of Escherichia coli MC4100 harboring the IMP4213 (E. coli IMP), which results in increased outer-membrane permeability (B Martin and Silhavy T. Imp/OstA is required for cell envelope biogenesis in Escherichia coli. (2002) Molecular Microbiology, 45(5), 1289-1302), and Escherichia coli ATCC 25922 (E. coli), a clinically relevant Gram-negative strain. Cells were inoculated onto plates of Trypyticase Soy Agar or Luria Agar respectively and grown at 35° C. for 20 hours. Inocula suspensions were prepared by scraping cells into 1 mL of testing media (cation adjusted Mueller Hinton Broth supplemented with 0.002% v/v Tween-80) and diluting to a final OD600 nm of 0.01.
(§2) Test compounds were prepared in DMSO at a concentration of 10 mg/mL. […] In protocol 2, the compound stocks were diluted into testing media at a concentration of 4 μg/mL and serial 2-fold dilutions were made in the same media, in 96-well U bottom microtiter dishes, for a total of 10 compound concentrations. In protocol 3, compound stocks were diluted into testing media at a concentration of 0.5 μg/mL, with serial 2-fold dilutions conducted as described above. […] Inocula suspensions were added to the 2-fold serial dilutions of test compounds to a final density of OD OD600 nm of 0.0005 and incubated at 35° C. for 22 hours.

Assay [2] concerns Escherichia coli ATCC 25922 (E. coli). The assay can be described thus: Minimum inhibitory concentration, broth micro-dilution (CLSI). Particulars: read-out: MIC (μg/mL) E. coli. As for the experimental part:
Cells were inoculated onto plates of Trypyticase Soy Agar or Luria Agar respectively and grown at 35° C. for 20 hours. Inocula suspensions were prepared by scraping cells into 1 mL of testing media (cation adjusted Mueller Hinton Broth supplemented with 0.002% v/v Tween-80) and diluting to a final OD600 nm of 0.01.
as §2

Assay [3] relates to Methicillin Resistant Staphylococcus aureus strain USA 300, NRS384 (S. aureus). The description is as above. As for the experimental part:
as §1, §2

Where [4] appears, read: ATCC25922, E. coli ATCC 25922, 35° C., 22 hours.
[5] abbreviates: MRSA / NRS 384 / USA300, MRSA USA 300, NRS384, 35° C., 22 hours, cation adjusted Mueller Hinton Broth with 0.002% Tween-80, read-out: MIC (μg/mL) S. aureus.
Setting [6] is: MRSA / NRS 384 / USA300, 22 h, read-out: MIC (μg/mL) S. aureus.

Values after ≈ are worked out from the molar mass of the structure shown. Read-outs that look alike come from different tables or passages of the source.

Regarding `CCCCCCCc1ccc(C(=O)N[C@@H](CCN)C(=O)N(C)[C@@H]2C(=O)N[C@@H](C)C(=O)N[C@H](C(=O)NC/C=N/N3CC(=O)NC3=O)Cc3ccc(OCCN)c(c3)-c3cc2ccc3OCCN)c(C)c1` [Compound 101], the MIC in assay [1] is 0.031 µg/mL (≈ 0.0325 µM); in assay [2] (setting [4]), 4 µg/mL (≈ 4.19 µM); in assay [3] (setting [5]), 0.094 µg/mL (≈ 0.0985 µM).

As to `CCCCCCCc1ccc(C(=O)N[C@@H](CCN)C(=O)N(C)[C@@H]2C(=O)N[C@@H](C)C(=O)N[C@H](C(=O)N[C@@H](C)/C=N/N3CC(=O)NC3=O)Cc3ccc(OCCN)c(c3)-c3cc2ccc3OCCN)c(C)c1` [Compound 102], the MIC stood at 0.094 µg/mL (≈ 0.0971 µM) in assay [1], 8 µg/mL (≈ 8.26 µM) in assay [2] (setting [4]) and 0.13 µg/mL (≈ 0.134 µM) in assay [3] (setting [5]).

On to `CCCCCCCc1ccc(C(=O)N[C@@H](CCN)C(=O)N(C)[C@@H]2C(=O)N[C@@H](C)C(=O)N[C@H](C(=O)O)Cc3ccc(OCCN)c(c3)-c3cc2ccc3OCCN)c(C)c1` [Compound 103], for which the MIC stood at 0.0078 µg/mL (≈ 0.00956 µM) in assay [1]; 0.75 µg/mL (≈ 0.919 µM) in assay [2] (ATCC25922, 22 h); 0.17 µg/mL (≈ 0.208 µM) in assay [3] (setting [6]).

Consider `CCCCCCCc1ccc(C(=O)N[C@@H](CCN)C(=O)N(C)[C@@H]2C(=O)N[C@@H](C)C(=O)N[C@H](C(=O)NS(=O)(=O)CCl)Cc3ccc(OCCN)c(c3)-c3cc2ccc3OCCN)c(C)c1` [Compound 104], for which the MIC in assay [1] was 0.023 µg/mL (≈ 0.0248 µM); in assay [2] (setting [4]), 4 µg/mL (≈ 4.31 µM); in assay [3] (setting [5]) it was 0.75 µg/mL (≈ 0.809 µM).

For `CCCCCCCc1ccc(C(=O)N[C@@H](CCN)C(=O)N(C)[C@@H]2C(=O)N[C@@H](C)C(=O)N[C@H](C(=O)N[C@@H](C)C(=O)NOC(C)=O)Cc3ccc(OCCN)c(c3)-c3cc2ccc3OCCN)c(C)c1` [Compound 108], the MIC came out at 0.5 µg/mL (≈ 0.53 µM) in assay [1]; 32 µg/mL (≈ 33.9 µM) in assay [2] (ATCC25922, 22 h); 0.75 µg/mL (≈ 0.794 µM) in assay [3] (setting [6]).

In the case of `CCCCCCCc1ccc(C(=O)N[C@@H](CCN)C(=O)N(C)[C@@H]2C(=O)N[C@@H](C)C(=O)N[C@H](C(=O)NS(=O)(=O)O)Cc3ccc(OCCN)c(c3)-c3cc2ccc3OCCN)c(C)c1` [Compound 111], the MIC in assay [1] was determined as 0.063 µg/mL (≈ 0.0704 µM); in assay [2] (ATCC25922, 22 h) it was 8 µg/mL (≈ 8.94 µM); in assay [3] (setting [6]), 0.25 µg/mL (≈ 0.279 µM).

Turning to `CCCCCCCCc1ccc(C(=O)N[C@@H](CCN)C(=O)N(C)[C@@H]2C(=O)N[C@@H](C)C(=O)N[C@H](C(=O)NCC(=O)NCC#N)Cc3ccc(OCCN)c(c3)-c3cc2ccc3OCCN)c(C)c1` [Compound 114], the MIC is 0.13 µg/mL (≈ 0.141 µM) in assay [1]; 8 µg/mL (≈ 8.65 µM) in assay [2] (ATCC25922, 22 h); 0.5 µg/mL (≈ 0.54 µM) in assay [3] (setting [6]).

Regarding `CCCCCCOc1ccc(C(=O)N[C@@H](CCN)C(=O)N(C)[C@@H]2C(=O)N[C@@H](C)C(=O)N[C@H](C(=O)N[C@@H](C)C(=O)c3nnn[nH]3)Cc3ccc(OCCN)c(c3)-c3cc2ccc3OCCN)c(Cl)c1` [Compound 116], the MIC in assay [1] turned out to be 0.063 µg/mL (≈ 0.0655 µM); in assay [2] (ATCC25922, 22 h) it was 4 µg/mL (≈ 4.16 µM); in assay [3] (setting [6]), 0.063 µg/mL (≈ 0.0655 µM).

On to `CCCCc1ccc(-c2ccc(C(=O)N[C@@H](CN)C(=O)N(C)[C@@H]3C(=O)N[C@@H](C)C(=O)N[C@H](C(=O)NC(C)=O)Cc4ccc(OCCN)c(c4)-c4cc3ccc4OCCN)cc2)cc1` [Compound 122], for which the MIC in assay [1] is 0.094 µg/mL (≈ 0.109 µM); in assay [2] (ATCC25922, 22 h), 3 µg/mL (≈ 3.48 µM); in assay [3] (setting [6]), 1.5 µg/mL (≈ 1.74 µM).

`C=C(C#N)NC(=O)[C@@H]1Cc2ccc(OCCN)c(c2)-c2cc(ccc2OCCN)[C@H](N(C)C(=O)[C@H](CCCN)NC(=O)c2ccc(-c3ccc(CCCC)cc3)cc2)C(=O)N[C@@H](C)C(=O)N1` [Compound 130]: the MIC was found to be 0.13 µg/mL (≈ 0.144 µM) in assay [1]; 6 µg/mL (≈ 6.67 µM) in assay [2] (ATCC25922, 22 h); 0.38 µg/mL (≈ 0.422 µM) in assay [3] (setting [6]).

As for `CCCCc1ccc(-c2ccc(C(=O)N[C@@H](CN)C(=O)N(C)[C@@H]3C(=O)N[C@@H](C)C(=O)N[C@H](c4nsc(=O)[nH]4)Cc4ccc(OCCN)c(c4)-c4cc3ccc4OCCN)cc2)cc1` [Compound 132], the MIC in assay [1] worked out at 0.25 µg/mL (≈ 0.285 µM); in assay [2] (ATCC25922, 22 h) it was 8 µg/mL (≈ 9.11 µM); in assay [3] (setting [6]) it was 4 µg/mL (≈ 4.56 µM).

On to `CCCCc1ccc(-c2ccc(C(=O)N[C@@H](CCCN)C(=O)N(C)[C@@H]3C(=O)N[C@@H](C)C(=O)N[C@H](c4nccc(=O)[nH]4)Cc4ccc(OCCN)c(c4)-c4cc3ccc4OCCN)cc2)cc1` [Compound 135], for which the MIC was 1.5 µg/mL (≈ 1.67 µM) in assay [1]; 32 µg/mL (≈ 35.6 µM) in assay [2] (ATCC25922, 22 h); more than 4 µg/mL in assay [3] (setting [6]).

For `CCCCc1ccc(-c2ccc(C(=O)N[C@@H](CCCN)C(=O)N(C)[C@@H]3C(=O)N[C@@H](C)C(=O)N[C@H](/C=C/C#N)Cc4ccc(OCCN)c(c4)-c4cc3ccc4OCCN)cc2)cc1` [Compound 138], the MIC in assay [1] stood at 0.5 µg/mL (≈ 0.583 µM); in assay [2] (ATCC25922, 22 h) it was 16 µg/mL (≈ 18.7 µM); in assay [3] (setting [6]), 4 µg/mL (≈ 4.67 µM).

For `C=CC(=O)N(C)NC(=O)[C@@H]1Cc2ccc(OCCN)c(c2)-c2cc(ccc2OCCN)[C@H](N(C)C(=O)[C@H](CCN)NC(=O)c2ccc(CCCC)cc2C)C(=O)N[C@@H](C)C(=O)N1` [Compound 144], the MIC in assay [1] is 2 µg/mL (≈ 2.34 µM); in assay [2] (setting [4]), 64 µg/mL (≈ 74.8 µM); in assay [3] (setting [5]), more than 4 µg/mL.

As to `C[C@@H]1NC(=O)[C@@H](N(C)C(=O)[C@H](CCCCN)NC(=O)c2ccc(-c3ccc(Cl)cc3)cc2)c2ccc(O)c(c2)-c2cc(ccc2O)C[C@@H](C(=O)NN(C)C(=O)CCl)NC1=O` [Compound 145], the MIC is 4 µg/mL (≈ 4.65 µM) in assay [1]; more than 64 µg/mL in assay [2] (ATCC25922, 22 h); 2 µg/mL (≈ 2.32 µM) in assay [3] (setting [6]).

Turning to `CCCCCCc1ccc(C(=O)N[C@@H](CCN)C(=O)N(C)[C@@H]2C(=O)N[C@@H](C)C(=O)N[C@H](C(=O)O)Cc3ccc(O)c(c3)-c3cc2ccc3O)c(C)c1` [Compound 146], the MIC was 0.75 µg/mL (≈ 1.05 µM) in assay [1]; more than 64 µg/mL in assay [2] (ATCC25922, 22 h); more than 4 µg/mL in assay [3] (setting [6]).

`CCCCCCCc1ccc(C(=O)N[C@@H](CCN)C(=O)N(C)[C@@H]2C(=O)N[C@@H](C)C(=O)N[C@H](C(=O)N[C@@H](C)C(=O)Oc3ccccc3)Cc3ccc(OCCN)c(c3)-c3cc2ccc3OCCN)c(C)c1` [Compound 148]: the MIC in assay [2] (setting [4]) came to 15.8 µg/mL (≈ 16.5 µM); in assay [3] (setting [5]), 0.5 µg/mL (≈ 0.519 µM).

Regarding `CCCCCCCc1ccc(C(=O)N[C@@H](CCN)C(=O)N(C)[C@@H]2C(=O)N[C@@H](C)C(=O)N[C@H](C(=O)N[C@@H](C)C(=O)NOC(N)=O)Cc3ccc(OCCN)c(c3)-c3cc2ccc3OCCN)c(C)c1` [Compound 149], the MIC in assay [2] (setting [4]) amounted to 16.1 µg/mL (≈ 17.1 µM); in assay [3] (setting [5]), 0.25 µg/mL (≈ 0.265 µM).

Regarding `CCCCCCCc1ccc(C(=O)N[C@@H](CCN)C(=O)N(C)[C@@H]2C(=O)N[C@@H](C3CC3)C(=O)N[C@H](C(=O)N[C@@H](C)C(C)=O)Cc3ccc(OCCN)c(c3)-c3cc2ccc3OCCN)c(C)c1` [Compound 150], the MIC in assay [2] (setting [4]) was 4.39 µg/mL (≈ 4.82 µM); in assay [3] (setting [5]), 0.068 µg/mL (≈ 0.0746 µM).
